Experimental data published in patent US20060234919A1, “Use” (priority 2001, published 2006).

Columns and labels:
Type in all cases: in vivo, rat
N-acetyl-LTE4 = test: OVA-induced N-acetyl-LTE4 synthesis in BN rats (experimental asthma model); details: for biliary excretion of N-acetyl-LTE4: 1.0 mg/kg by aerosol
Procedure: Inbred male BN rats, 7-9 weeks old, were obtained from Harlan Sprague-Dawley. Active sensitisation was performed by subcutaneous injection of 1 ml of saline containing 1 mg of ovalbumin and 3.48 mg of aluminum hydroxide. At the same time, 0.3 ml of Bordetella pertussis vaccine containing heat-killed organisms was given intraperitoneally as an adjuvant. Animals were studied 14-21 days after sensitisation.
Two groups of rats (n=3 for each group) were lightly anaesthetised with xylazine (7 mg/kg) and pentobarbital (30 mg/kg ip) before endotracheal intubation. Each rat then received either saline or 1.0 mg/kg oxytocin (1.0 mg/ml) by aerosol over a period of 5 min using a disposable nebulizer at a flow rate of […] and an output of 0.15 ml/min. Seventeen hours later, the animals were again anaesthetised, and these treatments were repeated. After a further hour, each of the rats was challenged with aerosolised 5% OVA in saline for 5 min.
Before the second treatment with oxytocin or saline, the rats were anaesthetised with urethane (1 g/kg ip, 50% wt/vol). After blind orotracheal intubation (6 cm of PE-240 polyethylene catheter), the common bile duct was exposed and cannulated (15 cm of PE-20 polyethylene tubing) after ligation of duodenal end. The rats were allowed to stabilise for a period of 2 h before challenge with OVA. Bile was collected for 1 h before and for 2 consecutive periods of 1 h after OVA challenge ([…]). All bile samples were collected on ice in 1.5-ml Eppendorf tubes. The bile was kept frozen at […] before analysis.
Bile samples were thawed, and methanol was added to 0.3-ml aliquots to give a final concentration of 80%. […] Ultraviolet absorbance was monitored by a variable wavelength ultraviolet detector. […]
Column fractions were evaporated to dryness in a centrifuge under vacuum, and the residues were dissolved in phosphate-buffered saline (0.1 ml at pH 8.2). N-acetyl-LTE4 was measured in each fraction by using a monoclonal antibody directed against LTC4, which cross-reacted with N-acetyl-LTE4. […]

TNF-alpha = TNF-alpha in BALF in SDX-induced eosinophilic airway inflammation; details: 1 mg/ml s.c.
Procedure: 12 male Wistar rats aged 11-12 weeks, with an average weight of 323 g, were used in the study. The animals (n=3 in each group) were evaluated at 3 h and 24 h after induced inflammation. These were compared with control animals (n=3 in each group) examined at the same time points. An eosinophilic airway inflammation was induced by intratracheal instillation of SDX particles (G-200 Superfine, Pharmacia & Upjohn, Uppsala, Sweden) dissolved in phosphate-buffered saline (PBS) as previously described (Andersson S E, Zackrisson C, Hemsen A, Lundberg J M. Regulation of lung endothelin content by the glucocorticosteroid budesonide. Biochem Biophys Res Commun 1992, 188:1116-1121) and compared with that in control animals receiving a similar volume of PBS intratracheally. BAL was performed by instillation of 3+2+2 ml of PBS in the right stem bronchus distal to the upper lobe, and the procedure was repeated in the main bronchus on the left side. Immediately after the BAL procedure, the lungs were removed and frozen in liquid nitrogen for tissue analyses 3 h and 24 h after SDX instillation (n=3 animals at each time point) and 3 h and 24 after intratracheal instillation of saline into control animals (n=3). Oxytocin 1 mg/ml was given s.c.
TNF-alpha was measured with a rat-specific sandwich enzyme-linked immunosorbent assay (ELISA; Factor-Test-X, Genzyme, Cambridge, Mass.). […]

allergic rhinitis = test: allergic rhinitis, sneezing and nasal rubbing after antigen challenge in sensitised rats; details: % as compared to untreated; topical 10 μl/each nostril 1 h before antigen challenge; counted 30 min
Procedure: Six-week-old male Wistar rats were housed in an air-conditioned room maintained at about 25° C. with humidity of about 50%. Rats were given a standard laboratory rodent chow and water ad libitum.
Rats were generally sensitised by injection of 0.6 ml physiological saline containing egg albumin (1 mg), alum (2 mg) and […] killed Bordetella pertussis into the four footpads on the first day. Five days later they were boosted by subcutaneous injection of 1 ml of physiological saline containing egg albumin (0.5 mg) in 10 sites on the back. Then, local sensitisation was performed every day for about one week from day 14 by dripping the egg albumin dissolved in physiological saline (1 mg/ml, 10 μl) into the bilateral nasal cavities using a micropipette.
After dripping 10 μl of egg albumin dissolved in physiological saline solution (1 mg/ml) into the bilateral nasal cavities, the numbers of nasal rubbing and sneezing were counted for 30 min and was set to 100%.
In this study, the rats were used following intranasal sensitisation (from day 21 to day 23 after the first sensitisation). On the last day, drugs (saline or oxytocin) were given topically (10 μl/each nostril) 1 h before topical antigen challenge. […] Also saline caused a minor decrease.

## Oxytocin
N-acetyl-LTE4; early response 0-1 h after OVA challenge, control 6.9±1.8
  biliary excretion of N-acetyl-LTE4: 4.3 ± 2.1 pmol/h
N-acetyl-LTE4; late response 5-6 h after OVA challenge, control 5.2±0.9
  biliary excretion of N-acetyl-LTE4: 2.6 ± 0.8 pmol/h
N-acetyl-LTE4; before OVA challenge
  levels of N-acetyl-LTE4 in oxytocin-treated vs control groups: almost identical
TNF-alpha; 3 h after SDX provocation
  TNF-alpha concentration in BALF: effectively inhibited the increase
TNF-alpha; 24 h after SDX provocation
  TNF-alpha level relative to animals not receiving oxytocin: 32%
Allergic rhinitis
  Nasal rubbing: 42%
  Sneezing: 52%
